Laboratory results: patent publication US20030008338A1, “Assay methods and kits therefor” (LumiTech (UK) Limited, priority 2000, published 2003)

What was measured:
Assay type in all cases: cell-based
Cem-7 cells = assay: AK (adenylate kinase) release bioluminescence assay, Cem-7 cells incubated with dexamethasone
Procedure: (§1) A number of different cell types have been tested for induction of cytotoxicity with soluble agents. Cytolysis is determined after incubation with the agent, when the cell membrane has lost integrity and AK can ‘leak’ out into the surrounding culture medium. The assay is performed by incubating non-microbial (e.g. mammalian) cells, either cell lines or primary cell types including isolated tumour cells, with the agonist(s) of choice. After an appropriate incubation time the cells are simply removed from the incubator and AK activity determined in the culture supernatant. If the cells have been cultured in clear bottomed, white walled plates (Perkin Elmer Life Sciences) in volumes no greater than 100 μl, then the plates are simply placed in a luminometer equipped with injection facilities and 150 μl of AKR added to each of the wells, where an integral reading of light output is measured over 1 second. When using luminometers without injectors the AKR can be added manually preferably using a multichannel pipette. The light output is read as soon after addition of reagent as possible. The increase in light output over the complete medium control is the result of the leakage of AK from damaged cells as a result of incubation with cytolytic inducing substances.
Example 1: We have investigated 37 different cell lines and models of apoptosis/necrosis induction. One of the first models investigated for this assay was the incubation of Cem-7 cells with dexamethasone. Two different experiments were performed: one experiment where cells at different cell numbers/well were incubated with one concentration of dexamethasone (500 nM, Sigma) for 48 and 72 hours, and another experiment where cells at 5000/well were incubated with increasing concentrations of the agent (0, 10, 25, 50, 75, 100, 150, 200 nM) for 72 hours. The cell suspensions were incubated in 100 μl in triplicate wells of a 96 well clear-bottomed white walled microtitre plate (Perkin Elmer Isoplate™). At the end of the incubation period the plates were assayed for AK activity using the Wallac Microbeta Jet, with 150 μl of AKR added and the RLUs (1 second integral) read at time 0 and every 5 minutes for 45 minutes. […] At 2500 cells per well the activity had increased by 71% from 15 913 RLUs at 48 hours to 27 266 RLUs at 72 hours.

K562 cells = assay: AK release bioluminescence assay, K562 cells incubated with ionomycin; set-up: cytolysis versus control cells at the lowest concentration: dose or concentration left out as unconfirmed
Procedure: as §1
Example 3: Ionomycin is a calcium ionophore that acts as a mobile ion carrier for Ca^2+. We investigated increasing concentrations of this agent on K562 cells. As with the previous examples, the cells were set up in 100 μl volumes in triplicate wells of a 96 well Isoplate™. The concentrations of ionomycin (Sigma) used were […]. Cells were incubated for three hours in the presence of the agent prior to determination of AK activity. The data shown in FIG. 7 are for the 1-second integral reading taken at time 0 using the Wallac MicroBeta Jet.

U937 cells = assay: AK release bioluminescence assay, U937 cells incubated with camptothecin
Procedure: as §1
Example 2: A second model known to induce secondary necrosis is the incubation of U937 cells (ECACC No: 87010802) with camptothecin (Sigma). The cells were set up in triplicate wells of a white Isoplate™ (Perkin Elmer Life Sciences) at serial doubling dilutions of cells with 1000 nM camptothecin. The cells were then incubated with the drug for 4 hours and AK activity was determined as outlined in example 1. […] In the control cells there was a slight increase in AK activity over the complete medium control, but the increase in the presence of the drug was much greater, nearly 3 fold (2.6).

[1] = camptothecin from 50 to 1000 μM, cells at 2500/well

C[C@@H]1C[C@H]2[C@@H]3CCC4=CC(=O)C=C[C@]4(C)[C@@]3(F)[C@@H](O)C[C@]2(C)[C@@]1(O)C(=O)CO [dexamethasone]
AK release (Cem-7 cells; 200 nM dexamethasone, 72 hours, 5000 cells/well): 16900 RLU | increase in AK activity from 48 hours to 72 hours (Cem-7 cells; 500 nM dexamethasone, 2500 cells per well): 71% | AK activity (Cem-7 cells; 500 nM dexamethasone, 48 hours, 2500 cells per well): 15 913 RLUs | AK activity (Cem-7 cells; 500 nM dexamethasone, 72 hours, 2500 cells per well): 27 266 RLUs

C[C@H](CCC(=O)O)C[C@H](C)C[C@H](C)C(=O)/C=C(\O)[C@H](C)C[C@H](C)C/C=C/[C@@H](C)[C@@H](O)[C@@H](C)[C@@H](O)C[C@@H]1CC[C@@](C)([C@H]2CC[C@@](C)([C@@H](C)O)O2)O1 [Ionomycin]
AK activity with all concentrations of the agent (K562 cells; FIG. 7, increasing concentrations of ionomycin): significant increase in AK activity | effect on AK activity with increasing concentrations (K562 cells; ionomycin 1, 2, 3, 4 and 5 mM, three hours, time 0 reading): concentration dependent effect | cytolysis versus control cells at the lowest concentration (K562 cells; lowest ionomycin concentration, three hours): significant increase in cytolysis

CC[C@@]1(O)C(=O)OCc2c1cc1n(c2=O)Cc2cc3ccccc3nc2-1 [camptothecin]
increase in AK activity in the presence of the drug (U937 cells; 1000 nM camptothecin, 4 hours): 2.6 fold | cell numbers at which the increase in activity was seen (U937 cells; 1000 nM camptothecin, 4 hours, serial doubling dilutions of cells): above 156 /well | concentration at which cytolysis appears (U937 cells; [1]): 100 µM | enzyme (AK) activity with increasing concentrations (U937 cells; [1]): concentration dependent increase in enzyme activity
